# Laboratory results reported in publication PMC7398468 (Gut, 2020).
# Biological target: SUMO-activating enzyme (SAE), subunit 2 (UBA2/SAE2) (Homo sapiens, UniProt Q9UBT2)
# Test: ATP-inorganic pyrophosphate exchange assay with SUMO2
# Type: biochemical
# Sequence of SUMO-activating enzyme (SAE), subunit 2 (UBA2/SAE2) (Q9UBT2 whole entry): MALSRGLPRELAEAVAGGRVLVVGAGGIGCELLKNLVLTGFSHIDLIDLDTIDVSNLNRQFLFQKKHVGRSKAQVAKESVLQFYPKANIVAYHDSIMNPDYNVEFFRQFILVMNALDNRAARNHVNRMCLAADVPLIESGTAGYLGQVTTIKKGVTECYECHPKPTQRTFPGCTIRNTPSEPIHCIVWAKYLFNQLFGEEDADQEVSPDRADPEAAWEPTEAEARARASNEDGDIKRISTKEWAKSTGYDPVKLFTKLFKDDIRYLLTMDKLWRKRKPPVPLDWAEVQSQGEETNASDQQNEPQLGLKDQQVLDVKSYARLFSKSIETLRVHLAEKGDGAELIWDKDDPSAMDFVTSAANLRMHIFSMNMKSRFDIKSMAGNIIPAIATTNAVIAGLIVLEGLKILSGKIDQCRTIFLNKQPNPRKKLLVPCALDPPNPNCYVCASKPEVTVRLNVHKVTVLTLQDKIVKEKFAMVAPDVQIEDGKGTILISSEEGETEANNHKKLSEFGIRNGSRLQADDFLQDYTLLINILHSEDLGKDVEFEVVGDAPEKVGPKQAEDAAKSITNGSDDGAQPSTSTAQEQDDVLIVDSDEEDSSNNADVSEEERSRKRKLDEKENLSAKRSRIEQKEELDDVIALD
# Sequence of SUMO-activating enzyme (SAE), subunit 2 (UBA2/SAE2) (Q9UBE0 whole entry, further chain): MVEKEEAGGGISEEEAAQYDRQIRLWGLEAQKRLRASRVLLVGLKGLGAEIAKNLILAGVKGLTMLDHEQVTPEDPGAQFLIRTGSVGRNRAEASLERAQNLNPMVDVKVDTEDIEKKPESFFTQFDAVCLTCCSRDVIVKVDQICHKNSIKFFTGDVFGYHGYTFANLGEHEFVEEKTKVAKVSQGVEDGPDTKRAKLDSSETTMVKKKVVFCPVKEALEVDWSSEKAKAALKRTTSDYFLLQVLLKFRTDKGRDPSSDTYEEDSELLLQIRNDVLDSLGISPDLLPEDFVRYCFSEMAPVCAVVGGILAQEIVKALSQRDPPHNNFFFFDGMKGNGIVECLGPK
substance,measurement,value
ML-93,IC50,37 nM
